Values of other authors as cited in patent US11708377B2, “Analogues and derivatives of cephalotaxine and methods for making and using the compounds” (Oregon State University, priority 2019, dated 2023).

Tests used:
[1] = background statement; lacks the ester sidechain of HHT
leukemia cells = conditions: background statement, no figure given

COC1=C[C@]23CCCN2CCc2cc4c(cc2[C@@H]3[C@@H]1O)OCO4 [Cephalotaxine, (−)-Cephalotaxine]
biological activity [1]: biologically inactive

COC(=O)C[C@](O)(CCCC(C)(C)O)C(=O)O[C@@H]1C(OC)=C[C@]23CCCN2CCc2cc4c(cc2[C@H]13)OCO4 [HHT, (−)-Homoharringtonine]
cytotoxicity against leukemia cells (leukemia cells): nanomolar cytotoxicity
